Values of other authors as cited in patent EP2965746B1 (Santa Farma Ilaç Sanayi A.S., priority 2014, dated 2016).
Converted amounts (≈) assume the structure as drawn.

Tests used:
[1] = in vivo
[2] = in water
[3] = in vivo; remark: listed apart in the source

| Structure (SMILES) | time to reach maximum plasma concentration (Tmax) [1] [h] | solubility [2] [µg/mL] | absolute bioavailability [3] |
| --- | --- | --- | --- |
| CC(C)Cc1ccc(C(C)C(=O)O)cc1 (racemic) [Ibuprofen, (±)-(R,S)-2-(4-isobutylphenyl)-propionic acid] | 1.4 ± 1.1 | 0.078 (≈ 0.378 µM) | about 100% |
| CC(C)Cc1ccc(C(C)C(=O)O)cc1.O.O.[Na] (stereo not shown) [Ibuprofen sodium dihydrate, ibuprofen sodium dihydrate] | 0.6 ± 0.3 |  |  |
